From patent US9227966B2, “Antimicrobial agents” (Rutgers, The State University of New Jersey, priority 2010, dated 2016)

These compounds were tested on methicillin-Sensitive Staphylococcus aureus (MSSA) (assay: Planktonic (free-living) antibacterial assay, broth microdilution MIC vs. MSSA). Conditions: minimal concentration at which bacterial growth is completely inhibited, 37° C., 24 to 48 hours, OD 600 nm.
Format: cell-based
Protocol: Test C. Planktonic (Free-Living) Antibacterial Assay.
Planktonic antibacterial activity can be determined using a broth microdilution assay in which log-phase bacteria are grown at 37° C. in appropriate medium containing two-fold serial dilutions of a compound to yield a final concentration ranging from […]. For determination of minimal inhibitory concentration (MIC) values, bacterial growth is monitored after 24 to 48 hours by measuring optical density at 600 nm.
The minimal inhibitory concentration against methicillin-Sensitive Staphylococcus aureus (MSSA) for each of the following representative compounds of the invention was determined to be less than 32 μg/ml.

MIC, ≤ 32 µg/mL:
C[n+]1cc2ccccc2cc1-c1cccc(-c2ccccc2)c1.[I-] [Example 2], COc1cc2cc(-c3cccc(-c4ccccc4)c3)[n+](C)c(C)c2cc1OC.[I-] [Example 4], C[n+]1cc2ccccc2cc1-c1cc(-c2ccccc2)cc(-c2ccccc2)c1.[I-] [Example 6], COc1cc2cc(-c3cc(-c4ccccc4)cc(-c4ccccc4)c3)[n+](C)c(C)c2cc1OC.[I-] [Example 8], COc1cc2cc(-c3cccc(-c4ccc(-c5ccccc5)cc4)c3)[n+](C)c(C)c2cc1OC.[I-] [Example 16], COc1cc2cc3c4cc(-c5ccc(-c6ccccc6)cc5)c(OC)c(OC)c4cc[n+]3c(C)c2cc1OC [Example 17], COc1cc2cc[n+]3cc4c(OC)c(OC)c(OC)cc4cc3c2cc1-c1ccc(-c2ccccc2)cc1.[Cl-] [Example 19], COc1cc2c(C)[n+]3ccc4c(OC)c(OC)ccc4c3cc2c(-c2ccc(-c3ccccc3)cc2)c1OC [Example 20], COc1cc2c[n+]3ccc4c(OC)c(OC)ccc4c3cc2c(-c2ccc(-c3ccccc3)cc2)c1OC.[Cl-] [Example 21], COc1cc2cc3c4cc(-c5cccc(N(C)C)c5)c(OC)cc4cc[n+]3c(C)c2cc1OC [Example 27], COc1cc2cc3c4cc(-c5ccc(C)cc5)c(OC)cc4cc[n+]3c(C)c2cc1OC [Example 30], COc1cc2cc3c4cc(-c5ccc(C)cc5)c(OC)cc4cc[n+]3cc2cc1OC.[Cl-] [Example 31], COc1cc2cc3c4cc(-c5ccccc5)c(OC)cc4cc[n+]3cc2cc1OC.[Cl-] [Example 35]
